Measured values reported in US12692274B2, “Tetrahydroisoquinoline derivatives for the treatment of red blood disorders and inflammatory diseases” (Sanofi, priority 2020, dated 2026).
Where “and” joins values, the source holds several entries; their conditions need not be identical. Equal entries are not always repeated.

Experiments:
[1] = molecular target: HIS-Keap1 full length / Biotin-Nrf2 (16-mer) (Homo sapiens, UniProt Q14145); experiment: biochemical
[2] = tested on: NQO1 activation in BEAS-2B cells; experiment: BEAS-2B cellular MTT assay of NQO1 activation, 0% HSA; type: cell-based
Outline: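 BEAS-2B cells grown in BEBM with BEGM SingleQuots (no GA-1000), kept below 70% confluence, seeded on collagen plates at a density giving 95-100% confluence after 48 h. Plates seeded in medium without HSA (0% HSA condition).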

[3] = tested on: NQO1 activation in BEAS-2B cells; experiment: BEAS-2B cellular MTT assay of NQO1 activation, 0.3% HSA; type: cell-based
Outline: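 BEAS-2B cells (<70% confluent in culture, BEBM/SingleQuots without GA-1000) seeded in collagen plates with 0.3% or 0% HSA, reaching 95-100% confluency after 48 h at 37 °C, 5% CO2; MTT read-out.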

[4] = Homo sapiens, Serum Free W, read-out: BEAS EC50 (nM) Serum Free W
[5] = Homo sapiens, BEAS+ W, read-out: BEAS+ W EC50
[6] = Homo sapiens, serum free, read-out: BEAS EC50 (nM) serum free
[7] = serum free, read-out: BEAS EC50 (nM) serum free
[8] = Homo sapiens, BEAS+, read-out: BEAS+ EC50
[9] = Serum Free W, read-out: BEAS EC50 (nM) Serum Free W
[10] = BEAS+ W, read-out: BEAS+ W EC50

Chain of HIS-Keap1 full length / Biotin-Nrf2 (16-mer) (Q14145 whole entry): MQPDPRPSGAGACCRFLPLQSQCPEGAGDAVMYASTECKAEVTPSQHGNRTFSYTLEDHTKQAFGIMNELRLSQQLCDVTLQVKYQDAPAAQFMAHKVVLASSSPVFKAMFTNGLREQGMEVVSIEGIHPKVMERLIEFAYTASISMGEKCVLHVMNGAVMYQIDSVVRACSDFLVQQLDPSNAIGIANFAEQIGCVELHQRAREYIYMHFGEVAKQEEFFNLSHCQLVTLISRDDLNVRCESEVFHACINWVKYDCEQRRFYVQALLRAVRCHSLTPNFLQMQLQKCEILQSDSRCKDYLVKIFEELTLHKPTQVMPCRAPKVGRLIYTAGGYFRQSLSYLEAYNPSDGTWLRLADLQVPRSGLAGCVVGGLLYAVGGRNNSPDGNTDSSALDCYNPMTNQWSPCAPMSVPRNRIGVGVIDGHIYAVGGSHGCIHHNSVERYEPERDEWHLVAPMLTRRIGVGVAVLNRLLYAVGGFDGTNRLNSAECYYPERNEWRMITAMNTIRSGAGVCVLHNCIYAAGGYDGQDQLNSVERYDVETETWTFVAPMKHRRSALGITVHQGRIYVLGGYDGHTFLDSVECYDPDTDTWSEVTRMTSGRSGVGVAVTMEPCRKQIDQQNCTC

Structure (SMILES)	IC50 [1]	EC50 [2, 4] [nM]	EC50 [3, 5] [nM]	EC50 [2, 6] [nM]	EC50 [2, 7]	EC50 ([3]; BEAS+, read-out: BEAS+ EC50)	EC50 [3, 8] [nM]	EC50 [2, 9] [nM]	EC50 [3, 10] [nM]
Cc1cc2ccc1C(=O)N1CCc3ccc(cc3C1)C(CC(=O)O)c1cnc(nc1)OCCCCO2 (stereo not drawn) [Compound 182]	55.7 nM and 44 nM	> 1000	> 10000	–	–	–	–	–	–
O=C(O)CC1c2cnc(nc2)OCCCCOc2ccc(cc2)C(=O)N2CCc3ccc1cc3C2 (stereo not drawn) [Compound 183]	642 nM and 571 nM	> 1000	> 10000	–	–	–	–	–	–
O=C(O)CC1c2ccc(nc2)OCCCCOc2ccc(cc2C(F)(F)F)C(=O)N2CCc3ccc1cc3C2 (stereo not drawn) [Compound 184]	168 nM and 147 nM	–	–	471	713 nM	2570 nM	2900	–	–
O=C(O)CC1c2ccc(nc2)OCCCCOc2cnc(cn2)C(=O)N2CCc3ccc1cc3C2 (stereo not drawn) [Compound 185]	> 1000 nM	–	–	> 10000	–	–	> 10000	–	–
Cc1nc2ncc1C(CC(=O)O)c1ccc3c(c1)CN(CC3)C(=O)c1ccc(c(Cl)c1)OCCCCO2 (stereo not drawn) [Compound 186]	527 nM and 289 nM	–	–	> 10000	–	–	> 10000	–	–
O=C(O)CC1c2ccc(nc2)OCCCCCc2cc(F)c(c(F)c2)C(=O)N2CCc3ccc1cc3C2 (stereo not drawn) [Compound 187]	5.9 nM and 5.6 nM	–	–	9.3	8.9 nM	19.1 nM	22	–	–
COc1cc2ccc1CCCCCCn1nnc3c(C)c(ccc31)C(CC(=O)O)c1ccc3c(c1)CN(CC3)C2=O (stereo not drawn) [Compound 189]	22.8 nM and 23.3 nM	–	–	4.4	6 nM	15.9 nM	18.8	–	–
COc1cc2ccc1C(=O)N1CCc3ccc(cc3C1)C(CC(=O)O)c1ccc3c(nnn3CCCCC2)c1C (stereo not drawn) [Compound 191]	19.5 nM and 20.4 nM	–	–	11.4	18 nM	18 nM	20.5	–	–
Cc1c2ccc3c1nnn3CCCCCCc1ccc3nc(n(C)c3c1)C(=O)N1CCc3ccc(cc3C1)C2CC(=O)O (stereo not drawn) [Compound 192]	7 nM and 6.8 nM	–	–	75.6	63.7 nM	124 nM	114	–	–
O=C(O)CC1c2ccc(nc2)OCCCCCc2cnc(c(F)c2)C(=O)N2CCc3ccc1cc3C2 (stereo not drawn) [Compound 194]	24.3 nM and 22.9 nM	–	–	870	1100 nM	829 nM	1080	–	–
Cc1cc2ccc1C(=O)N1CCc3ccc(cc3C1)C(CC(=O)O)c1cnc(nc1C)OCCCCO2 (stereo not drawn) [Compound 195]	62.3 nM and 69.9 nM	–	–	5570	> 10000 nM	–	> 10000	–	–
O=C(O)CC1c2ccc(nc2)OCCCCCc2cnc(nc2)C(=O)N2CCc3ccc1cc3C2 (stereo not drawn) [Compound 196]	130 nM and 116 nM	–	–	> 10000	–	–	> 10000	–	–
Cc1c2ccc3c1nnn3CCCCCCc1ccc(cc1)C(=O)N1CCc3ccc(cc3C1)[C@H]2CC(=O)O [Compound 202]	7.2 nM and 6.8 nM and 7.1 nM	–	–	58.2	55.5 nM and 69.1 nM	298 nM and 338 nM	200	–	–
Cc1c2ccc3c1nnn3CCCCCc1ccc3c(c1)nc(n3C)C(=O)N1CCc3ccc(cc3C1)C2CC(=O)O (stereo not drawn) [Compound 205]	2.7 nM and 3 nM	–	–	318	329 nM	507 nM	372	–	–
Cc1c2ccc3c1nnn3CCCCCCc1ccc3c(c1)nc(n3C)C(=O)N1CCc3ccc(cc3C1)C2CC(=O)O (stereo not drawn) [Compound 206]	5.3 nM and 5.7 nM	–	–	64	38.5 nM	119 nM	89.9	–	–
Cc1c2cnc3c1nnn3CCCCCCOc1cc(F)c(c(F)c1)C(=O)N1CCc3ccc(cc3C1)[C@@H]2CC(=O)O [Compound 207]	1.4 nM	23.7	65.4	–	–	–	–	32.1	57.6

Structure (SMILES)	IC50 [1]	EC50 [2, 4] [nM]	EC50 [3, 5] [nM]	EC50 [2, 6] [nM]	EC50 [2, 7]	EC50 ([3]; BEAS+, read-out: BEAS+ EC50)	EC50 [3, 8] [nM]	EC50 [2, 9] [nM]	EC50 [3, 10] [nM]
Cc1c2cnc3c1nnn3CCCCCCOc1cc(F)c(c(F)c1)C(=O)N1CCc3ccc(cc3C1)[C@H]2CC(=O)O [Compound 208]	1.1 nM	10.1	25.1	–	–	–	–	14.9	27.2
Cc1cc2ccc1C(=O)N1CCc3ccc(cc3C1)C(CC(=O)O)c1ccc(nc1)OCCCCO2 (stereo not drawn) [Compound 209]	0.4 nM and 0.5 nM	–	–	469	494 nM	903 nM	843	–	–
O=C(O)CC1c2ccc(nc2)OCCCCOc2cc(F)c(c(F)c2)C(=O)N2CCc3ccc1cc3C2 (stereo not drawn) [Compound 210]	3.7 nM and 4 nM	–	–	482	475 nM	845 nM	1020	–	–
O=C(O)CC1c2ccc(nc2)OCCCCOc2ccc(cc2Cl)C(=O)N2CCc3ccc1cc3C2 (stereo not drawn) [Compound 212]	7.7 nM and 5.7 nM	–	–	190	254 nM	811 nM	606	–	–
O=C(O)CC1c2ccc3c(c2)CN(CC3)C(=O)c2ncc(cc2F)OCCCCCCn2nnc3c(Cl)c1ccc32 (stereo not drawn) [Compound 213]	1.5 nM and 1.6 nM	–	–	118	98.4 nM	126 nM	147	–	–
O=C(O)CC1c2ccc3c(c2)CN(CC3)C(=O)c2ccc(cn2)OCCCCCCn2nnc3c(Cl)c1ccc32 (stereo not drawn) [Compound 214]	2.3 nM and 2.1 nM	–	–	245	132 nM	241 nM	234	–	–
O=C(O)CC1c2ccc3c(c2)CN(CC3)C(=O)c2ncc(cc2F)CCCCCn2nnc3c(Cl)c1ccc32 (stereo not drawn) [Compound 215]	1 nM and 1.1 nM	–	–	243	251 nM	310 nM	349	–	–
Cc1c2cnc3c1nnn3CCCCCCc1ccc(cc1)C(=O)N1CCc3ccc(cc3C1)C2CC(=O)O (stereo not drawn) [Compound 216]	2.1 nM and 2.3 nM	–	–	1.8	2.5 nM	28.2 nM	35.8	–	–
Cc1c2ccc3c1nnn3CCCCCCOc1cnc(c(F)c1)C(=O)N1CCc3ccc(cc3C1)C2CC(=O)O (stereo not drawn) [Compound 217]	1.9 nM and 2.1 nM	–	–	371	360 nM	301 nM	429	–	–
Cc1cc2ccc1C(=O)N1CCc3ccc(cc3C1)C(CC(=O)O)c1cnc3c(nnn3CCCCCCO2)c1C (stereo not drawn) [Compound 218]	0.8 nM	–	–	27.5	39.7 nM	37.5 nM	29.3	–	–
Cc1c2ccc3c1nnn3CCCCCc1cnc(c(F)c1)C(=O)N1CCc3ccc(cc3C1)C2CC(=O)O (stereo not drawn) [Compound 219]	1.3 nM and 1.5 nM	–	–	180	208 nM	208 nM	228	–	–
O=C(O)CC1c2ccc3c(c2)CN(CC3)C(=O)c2ccc(cn2)CCCCCn2nnc3c(Cl)c1ccc32 (stereo not drawn) [Compound 220]	1.4 nM and 1.2 nM	–	–	178	182 nM	346 nM	314	–	–
Cc1c2cnc3c1nnn3CCCCCCOc1ccc(c(F)c1)C(=O)N1CCc3ccc(cc3C1)C2CC(=O)O (stereo not drawn) [Compound 222]	1.6 nM and 1.5 nM	–	–	17.2	14.2 nM	38.6 nM	47.4	–	–
O=C(O)CC1c2ccc3c(c2)CN(CC3)C(=O)c2ncc(cc2F)CCCCCCn2nnc3c(Cl)c1ccc32 (stereo not drawn) [Compound 224]	2.1 nM and 2 nM	–	–	400	296 nM	314 nM	320	–	–
O=C(O)CC1c2ccc3c(c2)CN(CC3)C(=O)c2ccc(cn2)CCCCCCn2nnc3c(Cl)c1ccc32 (stereo not drawn) [Compound 225]	2.5 nM and 2.4 nM	–	–	169	175 nM	339 nM	303	–	–
O=C(O)CC1c2cnc(nc2)OCCCCc2ccc(c(Cl)c2)C(=O)N2CCc3ccc1cc3C2 (stereo not drawn) [Compound 226]	245 nM	–	–	> 10000	–	–	> 10000	–	–
